Laboratory results as given in patent US8957215B2, “Heteroaryl substituted benzothiazoles” (Navidea Biopharmaceuticals, Inc., priority 2006, dated 2015).
pIC50: −log10 of the molar value. Like-named read-outs stand apart in the source and are kept apart here.

Columns and labels:
[1] = during the first 5-10 min, reference radioligands; cited from earlier work
synthetic Aβ 1-40 [2] = molecular target: T1, synthetic Aβ 1-40 (Homo sapiens, UniProt P05067); test: Competition binding assay with [^3H]PIB as radioligand
T1 construct: using synthetic Aβ 1-40 in 2.7 nM of [^3H]PIB
T1 sequence (P05067 672-711 limits assumed): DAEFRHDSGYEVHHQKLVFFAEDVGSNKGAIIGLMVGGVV
Description: (§1) Competition binding was performed in 384-well FB filter plates using synthetic Aβ 1-40 in 2.7 nM of [^3H]PIB (or another ^3H-labeled radioligand when so mentioned) in phosphate buffer at pH 7.5, by adding various concentrations of non-radioactive compounds originally dissolved in DMSO. The binding mixture was incubated for 30 min at room temperature, followed by vacuum filtration, and subsequentially by washing twice with 1% Triton-X100. Scintillation fluid was thereafter added to the collected Aβ 1-40 on the filter plate, and the activity of the bound remaining radioligand ([^3H]PIB or another ^3H-labeled radioligand) was measured using 1450 Microbeta from PerkinElmer.
Specific binding was determined according to the competition binding assay described herein. The determined IC50's in the competition binding assays (using [^3H]PIB as radioligand) of 5 compounds of the present invention are shown in Table 1. Results (activity of remaining [^3H]PIB versus increasing concentration of non-labeled compounds) from typical competition assay experiments are exemplified in FIG. 1. In a similar way, competition studies with ^3H-labeled heteroaryl substituted benzthiazole derivates of the present invention were also conducted. Such results, from a typical competition study, are examplified in FIG. 2. PIB and 2-[6-(methylamino)pyridin-3-yl]-1,3-benzothiazol-6-ol (a novel compound of the present invention) both displaced [N-methyl-^3H3]-2-(6-methylamino-pyridin-3-yl)-benzothiazol-6-ol (a ^3H-labeled compound of the present invention). The binding of [N-methyl-^3H3]-2-(6-methylamino-pyridin-3-yl)-benzothiazol-6-ol (example 32) to Aβ1-40 fibrils, was reversible as evident from the dissociation experiment exemplified in FIG. 3.

[3] = In vivo rat brain entry study; conditions: i.v.
Description: Brain exposure after i.v administration was determined in rat brains using cassette dosing. Four different compounds were dosed followed by plasma and brain sampling at 2 and 30 minutes after the dosing. 2 to 30 min brain concentration ratios, and percentage of total of injected dose after 2 mins found in brain, were calculated. The compound concentrations were determined by analysis of protein precipitated plasma samples by reversed-phase liquid chromatography coupled to a electrospray tandem mass spectrometer.
FIG. 4. Brain and plasma concentration at 2 and 30 minutes after i.v. administration in rat of PIB (upper graph “A”), and 2-[6-(methylamino)pyridin-3-yl]-1,3-benzothiazol-6-ol (lower graph “B”), a compound of the present intervention (example 27).

[4] = tested on: amyloid plaques in APP/PS1 transgenic mice brain sections; test: Binding to amyloid plaques in APP/PS1 transgenic mouse brain sections; conditions: 1 nM tritium-labeled compound
Description: (§2) Slide-mounted brain sections (10 μm) from APP/PS1 transgenic mice were collected at the level of the lateral septum (bregma+0.98 mm; see Paxinos and Franklin, 2001). Human cortical sections (7 μm) from two AD patients and 1 control subject were obtained from a Dutch tissue bank.
(§3) Sections were preincubated for 30 minutes at room temperature in 50 mM Tris HCl (pH 7.4) in the presence or absence of 1 μM PIB. Sections were transferred to buffer containing tritium-labeled compound (1 nM) with or without PIB (1 μM) and incubated for 30 minutes at room temperature. Incubation was terminated by 3 consecutive 10 minute rinses in buffer (1° C.) followed by a rapid rinse in distilled water (1° C.). Sections were air dried in front of a fan. Dried sections and plastic tritium standards (Amersham microscales-^3H) were apposed to phosphoimage plates (Fuji) in a cassette and exposed overnight. The following morning, the image plates were processed with a Fuji phosphoimager (BAS 2500) using BAS Reader software. The resulting image was converted to TIF format using Aida software, optimized with Adobe Photoshop (v 8.0) and quantified using Image-J (NIH). Data were statistically analyzed using Excel.

[5] = molecular target: T2, human synthetic Aβ 1-40 fibrils (Homo sapiens, UniProt P05067); test: Dissociation experiment; assay type: binding; conditions: FIG. 3
T2 construct: 2 μM human synthetic Aβ 1-40 fibrils in phosphate buffer pH 7.5
T2 sequence (P05067 672-711 limits assumed): as above
Description: Dissociation experiments were performed in 96-well polypropylene deep well plates. 2 μM human synthetic Aβ 1-40 fibrils in phosphate buffer pH 7.5, or buffer alone as control, was incubated with 9 nM of a ^3H-labeled radioligand of the present invention for 4 h at room temperature. Dissociation was started at different time points, by the addition of an equal volume of a non-labeled compound of the present invention, or a reference compound (10 μM), in 4% DMSO in phosphate buffer at pH 7.5. The radioactivity still bound to the Aβ 1-40 fibrils at the end of the incubation was detected on FB filters after filtration in a Brandel apparatus using a wash buffer containing 0.1% Triton-X100.
FIG. 3. Example of a dissociation experiment: Dissociation of [N-methyl-^3H3]-2-(6-methylamino-pyridin-3-yl)-benzothiazol-6-ol (example 32) from Aβ1-40 fibrils over time.

[6] = tested on: amyloid plaques in post-mortem human AD brains; test: Binding to amyloid plaques in post-mortem human AD brain sections
Description: as §2, §3

[7] = tested on: amyloid plaques in APP/PS1 mouse brain; assay type: in vivo
Description: Naïve, awake mice were restrained and intravenously infused via the tail vein with either a tritium labeled compound of the present invention, or a tritium labeled reference compound via the tail vein. In one type of experiment, the animals were rapidly anesthetized with isofluorane and decapitated twenty minutes after compound administration (1 mCi). In another type of experiment, mice were given 1 mCi of a compound and were anesthetized and decapitated at a timepoint of 20, 40 or 80 minutes after administration. Brains were removed and frozen with powdered dry ice. Brains were sectioned (10 μm) in the coronal plane at the level of the striatum with a cryostat, thaw-mounted onto superfrost microscope slides and air-dried.
Methods designed to optimize the imaging of bound ligand after in vivo administration were thereafter employed. To selectively reduce unbound radioactivity levels, one-half of the sections were rinsed (3×10 minutes) in cold (1° C.) Tris buffer (50 mM, pH7.4) followed by a rapid rinse in cold (1° C.) deionized water. Sections were then air dried in front of a fan. Rinsed as well as unrinsed sections and tritium standards were exposed to phosphoimage plates (Fuji). Phosphoimage plates were processed with a Fujifilm BAS-2500 phosphoimager using BAS Reader software.

synthetic Aβ 1-40 [8] = molecular target: T1, synthetic Aβ 1-40; test: Competition binding assay with [N-methyl-^3H3]-2-(6-methylamino-pyridin-3-yl)-benzothiazol-6-ol as radioligand; conditions: ^3H-labeled example 32 as radioligand, FIG. 2
Description: as §1
Specific binding was determined according to the competition binding assay described herein. The determined IC50's in the competition binding assays (using [^3H]PIB as radioligand) of 5 compounds of the present invention are shown in Table 1. Results (activity of remaining [^3H]PIB versus increasing concentration of non-labeled compounds) from typical competition assay experiments are exemplified in FIG. 1. In a similar way, competition studies with ^3H-labeled heteroaryl substituted benzthiazole derivates of the present invention were also conducted. Such results, from a typical competition study, are examplified in FIG. 2. […]

[9] = Whole body PET measurement in monkey; assay type: in vivo
Description: Whole body PET-measurement was performed in one monkey. A sterile physiological phosphate buffer (pH=7.4) solution containing 51 MBq of [^11C]PIB in the first measurement, and 57 MBq of a [^11C]-labelled compound of the present invention in the second measurement, was injected as a bolus into a sural vein over a period of 5 seconds with simultaneous start of PET-data acquisition that lasted for 87 min. The time between radioligand injections was 2 h. PET measurements were assessed visually by creating planar maximum intensity projection images of decay uncorrected data and also converting decay corrected images to ones containing parts-per-million (ppm) values of the total injected radioactivity.

[10] = Brain PET study in monkey; assay type: in vivo
Description: The monkey PET study aimed to assess and compare a [^11C]-labelled compound of this invention to [^11C]PIB regarding measures of brain availability, non-specific binding in the brain, whole body biodistribution, elimination and exploration of regional differences in uptake. Five brain PET measurements were performed in three monkeys under anesthesia. In each PET-measurement a sterile physiological phosphate buffer (pH=7.4) solution containing 52-55 MBq of either a [^11C]-labelled compound of this invention, or [^11C]PIB, was injected as a bolus into a sural vein over a period of 5 seconds with simultaneous start of PET-data acquisition. Radioactivity in brain was measured continuously for 93 minutes. Only [^11C]PIB measurement was performed in the first monkey. In the other two monkeys a [^11C]-labelled compound of the present invention was measured first and [^11C]PIB was administered in a subsequent measurement. The time between radioligand injections was approx. 2 h. PET measurements were evaluated with respect to the time-activity curve for the whole brain expressed as percent injected radioactivity dose.

## CCN1CCC[C@H]1CNC(=O)c1c(O)c(Cl)cc(Cl)c1O[11CH3] (racemic) [[^11C]raclopride]
[1]
  fraction of the total injected radioactivity present in the brain: 1-2%

## CN1CCN(c2ccc(-c3nc4ccc(O)cc4s3)cn2)CC1 [Example 6, 2-[6-(4-Methylpiperazin-1-yl)pyridin-3-yl]-1,3-benzothiazol-6-ol Acetate]
Synthetic Aβ 1-40 [2]
  pIC50: 6.75

## COc1ccc(-c2nc3ccc(C(N)=O)cc3s2)cn1 [Example 9, 2-(6-Methoxypyridin-3-yl)-1,3-benzothiazole-6-carboxamide]
Synthetic Aβ 1-40 [2]
  pIC50: 6.77

## CC(=O)Nc1ccc2nc(-c3ccc(N4CCN(C)CC4)nc3)sc2c1 [Example 15, N-{2-[6-(4-Methylpiperazin-1-yl)pyridin-3-yl]-1,3-benzothiazol-6-yl}acetamide]
Synthetic Aβ 1-40 [2]
  pIC50: 6.73

## CNc1ccc(-c2nc3ccc(OC)cc3s2)cn1 [Example 25, 5-(6-Methoxy-1,3-benzothiazol-2-yl)-N-methylpyridin-2-amine]
Synthetic Aβ 1-40 [2]
  pIC50: 7.24

## CNc1ccc(-c2nc3ccc(O)cc3s2)cn1 [Example 27, 2-[6-(Methylamino)pyridin-3-yl]-1,3-benzothiazol-6-ol]
[3]
  2 minute to 30 minute brain concentration ratio: > 15
[3]; 2 min time point
  brain uptake value: 1 % of the injected dose

## [3H]C([3H])([3H])Nc1ccc(-c2nc3ccc(O)cc3s2)cn1 [Example 32, [N-Methyl-^3H3]-2-(6-Methylamino-pyridin-3-yl)-benzothiazol-6-ol]
[4]
  labeling of dense core plaques: labeled dense core plaques
[5]
  reversibility of binding to Aβ1-40 fibrils: reversible
[6]; human cortical sections
  levels of nonspecific binding compared to [^3H]PIB: substantially reduced
[6]; human cortical sections, 1 nM tritium-labeled compound
  labeling of dense core plaques: labeled dense core plaques
[6]; superficial gray layers of human cortex
  specific binding levels greater than binding observed with [^3H]PIB: approximately 40%
[7]; 20 minutes after administration
  cortical plaque labeling in rinsed tissue: highest
[7]; 80 minutes after administration
  cortical plaque labeling in rinsed tissue: barely detectable
[7]; APP/PS1 mice, decapitation 20 minutes after administration
  labeling of cortical structures after in vivo administration: labeled cortical structures
[7]; corpus callosum (white matter)
  effect of in vitro rinse on levels in corpus callosum: dramatically reduced
[7]; striatum (gray matter)
  reduction of nonspecific binding by in vitro rinse: 78.5%

## CNc1ccc(-c2nc3ccc(O)cc3s2)cc1 [PIB]
Synthetic Aβ 1-40 [8]
  displacement of [N-methyl-^3H3]-2-(6-methylamino-pyridin-3-yl)-benzothiazol-6-ol: displaced

## [11CH3]Nc1ccc(-c2nc3ccc(O)cc3s2)cc1 [[^11C]PIB, reference compound]
[9]
  elimination routes: urinary excretion and hepatobiliary secretion

## [11CH3]Nc1ccc(-c2nc3ccc(O)cc3s2)cn1 [^11C-Example 1, [N-Methyl-^11C]-2-(6-Methylamino-pyridin-3-yl)-benzothiazol-6-ol]
[9]
  elimination as compared to [^11C]PIB: faster elimination
  elimination routes: urinary excretion and hepatobiliary secretion
[10]; monkey
  brain concentration after the peak: declined rapidly
[10]; monkey brain, time points of relevance for PET-detection
  unspecific binding as compared to [^11C]PIB: significantly lower
[10]; monkey, FIG. 12
  brain exposure: 1-3 % of total injected radioactivity
[10]; monkey, after injection
  time of peak brain uptake: first minute
